In PubChem BioAssay (NCI):
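Compound exposure: 48 hours, 5 concentrations, 96-well plates. At the GI50, growth is halved. TGI marks complete inhibition of growth.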

How the values were obtained:
Experiment in all cases: NCI anticancer screen, dose series, 48 h
[1] = test system: UACC-257 melanoma
[2] = test system: HCT-15 colon
[3] = test system: SK-MEL-28 melanoma
[4] = test system: MDA-MB-435
[5] = test system: SF-268 CNS
[6] = test system: UO-31 renal
[7] = test system: MDA-MB-231 breast
[8] = test system: NCI-H522 lung
[9] = test system: OVCAR-8 ovarian
[10] = test system: T-47D breast
[11] = test system: SK-OV-3 ovarian
[12] = test system: HCT-116 colon
[13] = test system: LOX IMVI melanoma
[14] = test system: CCRF-CEM leukemia
[15] = test system: K-562 leukemia
[16] = test system: U251 CNS
[17] = test system: A549 NSCLC
[18] = test system: A498 renal
[19] = test system: MCF7 breast
[20] = test system: OVCAR-4 ovarian
[21] = test system: HT29 colon
[22] = test system: COLO 205 colon
[23] = test system: PC-3 prostate
[24] = test system: HS 578T breast
[25] = test system: HCC-2998 colon
[26] = test system: HOP-92 NSCLC
[27] = test system: MOLT-4 leukemia
[28] = test system: CAKI-1 renal
[29] = test system: 786-0 renal
[30] = test system: SW-620 colon
[31] = test system: SNB-19 CNS
[32] = test system: TK-10 renal
[33] = test system: BT-549 breast
[34] = test system: OVCAR-3 ovarian
[35] = test system: M14 melanoma
[36] = test system: NCI-H23 lung
[37] = test system: SN12C renal
[38] = test system: NCI/ADR-RES ovarian
[39] = test system: SNB-75 CNS
[40] = test system: NCI-H460 lung
[41] = test system: ACHN renal
[42] = test system: KM12 colon
[43] = test system: OVCAR-5 ovarian
[44] = test system: DU-145 prostate
[45] = test system: NCI-H226 lung
[46] = test system: SK-MEL-2 melanoma
[47] = test system: HOP-62 NSCLC
[48] = test system: SF-295 CNS
[49] = test system: SK-MEL-5 melanoma
[50] = test system: IGROV1 ovarian
[51] = test system: EKVX NSCLC
[52] = test system: UACC-62 melanoma
[53] = test system: RPMI-8226 leukemia

`COc1cc(/C=C/c2cc(/C=C/c3ccc(O)c(OC)c3)n(C(N)=O)n2)ccc1O` gave a GI50 [1] of 1.53 µM, a TGI [1] of 9.03 µM and a GI50 [2] of 0.312 µM. The TGI [2] was 2.01 µM, the GI50 [3] was 0.609 µM and the TGI [3] was 3.26 µM. It also gave a GI50 [4] of 0.102 µM, a TGI [4] of 0.346 µM and a GI50 [5] of 0.439 µM. The TGI [5] was 4.83 µM, the GI50 [6] was 0.37 µM and the TGI [6] was 1.69 µM. For the same molecule, the GI50 [7] was 0.655 µM, the TGI [7] was 12.8 µM and the GI50 [8] was 0.252 µM. For the same molecule, the TGI [8] was 0.964 µM, the GI50 [9] was 0.543 µM and the TGI [9] was 22.8 µM. The GI50 [10] was 0.507 µM, the TGI [10] was 3.68 µM and the GI50 [11] was 0.392 µM. It also gave a TGI [11] of 1.93 µM, a GI50 [12] of 0.314 µM and a TGI [12] of 1.11 µM. It also gave a GI50 [13] of 0.493 µM, a TGI [13] of 2.75 µM and a GI50 [14] of 0.295 µM. For the same molecule, the TGI [14] was greater than 100 µM, the GI50 [15] was 0.35 µM and the TGI [15] was greater than 100 µM. It also gave a GI50 [16] of 0.526 µM, a TGI [16] of 10.5 µM and a GI50 [17] of 0.491 µM. The TGI [17] was 11.3 µM, the GI50 [18] was 1.12 µM and the TGI [18] was 3.48 µM. The GI50 [19] was 0.314 µM, the TGI [19] was 1.45 µM and the GI50 [20] was 0.57 µM. It also gave a TGI [20] of 5.03 µM, a GI50 [21] of 2.18 µM and a TGI [21] of 5.28 µM. It also gave a GI50 [22] of 2.36 µM, a TGI [22] of 6.03 µM and a GI50 [23] of 0.439 µM. It also gave a TGI [23] of 2.31 µM, a GI50 [24] of 0.259 µM and a TGI [24] of 2.52 µM. It also gave a GI50 [25] of 1.56 µM, a TGI [25] of 11.2 µM and a GI50 [26] of 0.861 µM. For the same molecule, the TGI [26] was 4.4 µM, the GI50 [27] was 0.365 µM and the TGI [27] was greater than 100 µM. For the same molecule, the GI50 [28] was 0.368 µM, the TGI [28] was 10 µM and the GI50 [29] was 0.372 µM. It also gave a TGI [29] of 1.37 µM, a GI50 [30] of 0.398 µM and a TGI [30] of 1.82 µM. It also gave a GI50 [31] of 0.691 µM, a GI50 [32] of 1.3 µM and a TGI [32] of 4.73 µM. It also gave a GI50 [33] of 0.395 µM, a TGI [33] of 1.58 µM and a GI50 [34] of 0.427 µM. For the same molecule, the TGI [34] was 2.19 µM, the GI50 [35] was 0.283 µM and the TGI [35] was 1.03 µM. The GI50 [36] was 0.647 µM, the TGI [36] was 3.53 µM and the GI50 [37] was 0.585 µM. It also gave a TGI [37] of 5.94 µM, a GI50 [38] of 0.435 µM and a TGI [38] of 4.44 µM. It also gave a GI50 [39] of 0.311 µM, a TGI [39] of 1.26 µM and a GI50 [40] of 0.318 µM. The TGI [40] was 1.3 µM, the GI50 [41] was 0.342 µM and the TGI [41] was 10.2 µM. It also gave a GI50 [42] of 0.351 µM, a TGI [42] of 1.86 µM and a GI50 [43] of 1.76 µM. The TGI [43] was greater than 100 µM, the GI50 [44] was 0.482 µM and the TGI [44] was 1.63 µM. For the same molecule, the GI50 [45] was 1.38 µM, the TGI [45] was 4.4 µM and the GI50 [46] was 0.4 µM. The TGI [46] was 1.13 µM.
Molecule `CC(=O)c1ccc(Nc2cc(-n3nnc4ccccc43)nc3ccccc23)cc1` has a GI50 [1] of 45 µM, a TGI [1] greater than 100 µM and a GI50 [2] greater than 100 µM. For the same molecule, the TGI [2] was greater than 100 µM, the GI50 [3] was 15.5 µM and the TGI [3] was greater than 100 µM. It also gave a GI50 [47] of 4.51 µM, a TGI [47] of 18.2 µM and a GI50 [4] of 19.7 µM. The TGI [4] was 94.6 µM, the GI50 [5] was 25.1 µM and the TGI [5] was greater than 100 µM. For the same molecule, the GI50 [6] was 23 µM, the TGI [6] was greater than 100 µM and the GI50 [7] was 4.41 µM. The TGI [7] was 35.7 µM, the GI50 [8] was 35.4 µM and the TGI [8] was greater than 100 µM. It also gave a GI50 [9] of 7.83 µM, a TGI [9] of 43.4 µM and a GI50 [10] of 18.9 µM. For the same molecule, the TGI [10] was 87.1 µM, the GI50 [11] was 20.5 µM and the TGI [11] was 43.4 µM. It also gave a GI50 [12] of 32.9 µM, a TGI [12] greater than 100 µM and a GI50 [48] of 4.96 µM. For the same molecule, the TGI [48] was 13.6 µM, the GI50 [13] was 13.4 µM and the TGI [13] was greater than 100 µM. It also gave a GI50 [14] of 5.18 µM, a TGI [14] greater than 100 µM and a GI50 [15] greater than 100 µM. It also gave a TGI [15] greater than 100 µM, a GI50 [16] of 14.4 µM and a TGI [16] of 44.1 µM. The GI50 [17] was 32.3 µM, the TGI [17] was greater than 100 µM and the GI50 [19] was 36.3 µM. It also gave a TGI [19] greater than 100 µM, a GI50 [20] of 10.7 µM and a TGI [20] of 61.9 µM. It also gave a GI50 [21] of 12.9 µM, a TGI [21] greater than 100 µM and a GI50 [22] of 30.6 µM. It also gave a TGI [22] greater than 100 µM, a GI50 [23] of 13.9 µM and a TGI [23] of 72.4 µM. It also gave a GI50 [24] of 9.02 µM, a TGI [24] of 28.8 µM and a GI50 [49] of 26.6 µM. For the same molecule, the TGI [49] was 75.4 µM, the GI50 [50] was 55.7 µM and the TGI [50] was greater than 100 µM. It also gave a GI50 [51] of 9.41 µM, a TGI [51] of 67.4 µM and a GI50 [28] of 13.2 µM. The TGI [28] was 35.2 µM, the GI50 [29] was 11.9 µM and the TGI [29] was 30.1 µM. For the same molecule, the GI50 [30] was greater than 100 µM, the TGI [30] was greater than 100 µM and the GI50 [31] was 47.6 µM. For the same molecule, the TGI [31] was greater than 100 µM, the GI50 [32] was 9.46 µM and the TGI [32] was 24.3 µM. The GI50 [52] was 14.5 µM, the TGI [52] was 62.8 µM and the GI50 [33] was 16 µM. For the same molecule, the TGI [33] was 66.2 µM, the GI50 [34] was 14 µM and the TGI [34] was 37.5 µM. It also gave a GI50 [35] of 10.9 µM, a TGI [35] of 44.6 µM and a GI50 [36] of 15.8 µM. For the same molecule, the TGI [36] was 72.6 µM, the GI50 [37] was 6.24 µM and the TGI [37] was 35.4 µM. It also gave a GI50 [38] of 12 µM, a TGI [38] of 46 µM and a GI50 [39] of 19.6 µM. For the same molecule, the TGI [39] was 60.5 µM, the GI50 [53] was 2.5 µM and the TGI [53] was 14 µM. The GI50 [40] was 29.1 µM, the TGI [40] was greater than 100 µM and the GI50 [41] was 13.2 µM. It also gave a TGI [41] of 26.9 µM, a GI50 [42] of 4.16 µM and a TGI [42] of 25.6 µM. For the same molecule, the GI50 [43] was 26.2 µM, the TGI [43] was greater than 100 µM and the GI50 [44] was 14.6 µM. For the same molecule, the TGI [44] was 82 µM, the GI50 [45] was 14.8 µM and the TGI [45] was 59.4 µM. It also gave a GI50 [46] of 27.6 µM and a TGI [46] greater than 100 µM.
